Data taken from patent publication US20050209278A1, “Piperidinyl- and piperazinyl-sulfonylmethyl hydroxamic acids and their use as protease inhibitors” (priority 2002, published 2005).
Counter-ions that a name gives are not always drawn. Like-named read-outs stand apart in the source and are kept apart here.

What was measured:
[1] = target: T1, MMP-2 (Homo sapiens, UniProt P08253); assay: In vitro MMP inhibition, Ki determination (fluorogenic substrate II); type: biochemical; settings: read-out: MMP-2 Ki
T1 construct: made in house; host or cells: MMP-2-transfected p2AHT2 cells
T1 sequence (P08253 110-660): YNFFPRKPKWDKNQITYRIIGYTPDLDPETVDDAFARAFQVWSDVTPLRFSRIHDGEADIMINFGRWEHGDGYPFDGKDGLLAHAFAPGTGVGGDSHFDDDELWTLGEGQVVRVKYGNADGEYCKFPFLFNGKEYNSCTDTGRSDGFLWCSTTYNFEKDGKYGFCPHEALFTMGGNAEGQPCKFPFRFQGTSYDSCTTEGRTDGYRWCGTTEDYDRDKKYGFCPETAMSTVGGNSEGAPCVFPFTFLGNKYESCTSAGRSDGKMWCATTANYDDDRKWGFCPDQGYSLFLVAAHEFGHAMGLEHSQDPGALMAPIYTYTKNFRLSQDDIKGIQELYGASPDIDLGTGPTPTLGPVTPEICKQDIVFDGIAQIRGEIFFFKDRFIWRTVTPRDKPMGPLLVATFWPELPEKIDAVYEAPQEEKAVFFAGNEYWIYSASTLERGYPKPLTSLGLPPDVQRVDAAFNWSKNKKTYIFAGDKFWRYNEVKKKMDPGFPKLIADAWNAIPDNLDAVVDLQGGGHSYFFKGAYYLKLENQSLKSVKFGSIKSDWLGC

[2] = target: T2, MMP-14 (Homo sapiens, UniProt P50281); assay: as above; type: biochemical; settings: read-out: MMP-14 Ki
T2 construct: The catalytic domain enzyme was expressed in E. coli inclusion bodies, solubilized in urea; made in house
Protocol: Several hydroxamic acids and salts thereof were analyzed in in vitro assays to determine their ability to inhibit the MMP cleavage of peptide substrates. […] and IC50 constants were calculated from the assayed hydroxamic acid-MMP interactions.
Human recombinant MMP-1, MMP-2, MMP-9, MMP-13, and MMP-14 were used in this assay. All enzymes were prepared in Assignee's laboratories following usual laboratory procedures. Protocols for the preparation and use of these enzymes are available in the scientific literature. See, e.g., Enzyme Nomenclature (Academic Press, San Diego, Calif., 1992) (and the citations therein). See also, Freije et al., “Molecular cloning and expression of collagenase-3, a novel human matrix metalloproteinase produced by breast carcinomas,” J Biol. Chem., 269(24), 16766-16773 (1994).
The MMP-14 full length cDNA was provided by Dr. Gregory Goldberg of Washington University (St. Louis, Mo.). The catalytic domain enzyme was expressed in E. coli inclusion bodies, solubilized in urea, purified on a preparative […] reverse phase HPLC column, and then refolded in the presence of zinc acetate and purified for use.
All MMPs were activated using 4-aminophenylmercuric acetate (“APMA”, Sigma Chemical, St. Louis, Mo.) or trypsin. MMP-9 also was activated using human recombinant MMP-3 (purified in Assignee's laboratory following standard cloning and purification techniques).
Two fluorogenic, methoxycoumarin-containing polypeptide substrates were used in the MMP inhibition assays: [drawing 427] Here, “Dpa” is 3-(2,4-dinitrophenyl)-L-2,3-diaminopropionyl group, and “MCA” is 7-methoxycoumarin-4-yl acetyl. Substrate (I) was purchased from Baychem (Redwood City, Calif.), and substrate II was prepared Assignee's laboratory. Substrate I was used in the IC50 determination assays, while substrate II was used in the Ki determination assays. In the absence of MMP inhibitory activity, either substrate is cleaved at the Gly-Leu peptide bond. This cleavage separates the highly fluorogenic peptide from the 2,4-dinitrophenyl quencher, thus resulting in increase of fluorescent intensity.
The stock solutions of the assayed hydroxamic acids (or salts thereof) were prepared in 1% dimethyl sulfoxide (DMSO). These stock solutions were diluted in Buffer A (100 mM Tris-HCl, 100 mM NaCl, 10 mM CaCl2, 0.05% polyoxyethylene 23 lauryl ether, pH 7.5) to obtain solutions with different hydroxamic acid concentrations, i.e., assay solutions with different concentrations of the assayed MMP inhibitory compound. The experiment controls contained the same amount of Buffer A/DMSO as the assayed sample, but contained no hydroxamic acid (or salt thereof).
The assays from which the Ki determinations were made were performed as follows. The assayed hydroxamic acid samples were incubated in separate wells of untreated white polystyrene plates (Nunc Nalgene International, Rochester, N.Y.), and analyzed on a Tecan SpectraFlour Plus plate reader. The excitation wavelength was 330 nm, and the emission wavelength—420 nm. All samples (assayed hydroxamic acids and controls) were incubated in separate plate wells at room temperature for 1 hr in the presence of 4 μM of MMP substrate (II). In the absence of MMP inhibitory activity, substrate II was cleaved at the Gly-Leu bond resulting in an increase of relative fluorescence. Inhibition was observed as a reduced rate of this increase in relative fluorescence. The various hydroxamic acids were analyzed using a single low enzyme concentration with a single substrate concentration fixed at or below the Km. This protocol is a modification of method by Knight et al., FEBS Lett., 296(3), 263-266 (1992). Apparent inhibitory constants were determined by non-linear regression of reaction velocity as a function of inhibitor and enzyme concentration using Morrison's equation, as described by Kuzmic, Anal. Biochem. 286, 45-50 (2000).

[3] = human recombinant enzyme, 4 μM substrate II, room temperature, 1 hr
[4] = human recombinant enzyme (catalytic domain), 4 μM substrate II, room temperature, 1 hr

Row | Ki [1, 3] [nM] | Ki [2, 4] [nM] | Ki ([1]; value not in parenthesis) [nM] | Ki ([2]; value not in parenthesis) [nM] | SMILES
1 | 0.59 | 1260 | – | – | CCOc1ccc(N2CCN(S(=O)(=O)C3(C(=O)NO)CCOCC3)CC2)cc1 [Example 3, 4-{[4-(4-ethoxyphenyl)piperazinyl]sulfonyl}perhydro-2H-pyran-4-carbohydroxamic Acid]
2 | – | – | 1.64 | 4330 | C=CCCOC(=O)N1CCC(C(=O)NO)(S(=O)(=O)N2CCN(c3ccc(OCCCC)cc3)CC2)CC1 [Example 101]
3 | – | – | 0.871 | 2240 | O=C(NO)C1(S(=O)(=O)N2CCN(c3ccc(SC(F)(F)F)cc3)CC2)CCN(Cc2ccccc2)CC1 [Example 152]
4 | – | – | 0.695 | 2350 | CCCCOc1ccc(N2CCN(S(=O)(=O)C3(C(=O)NO)CCOCC3)CC2)cc1 [Example 145]
5 | – | – | 1.19 | 6980 | COCCN1CCC(C(=O)NO)(S(=O)(=O)N2CCN(c3ccc(OCCC(C)C)cc3)CC2)CC1 [Example 148]
6 | – | – | 0.672 | 945 | CCCCOc1ccc(N2CCN(S(=O)(=O)C3(C(=O)NO)CCN(c4cnccn4)CC3)CC2)cc1 [Example 140]
7 | – | – | 61.7 | > 10000 | CCCCCCCCCc1cnc(N2CCN(S(=O)(=O)C3(C(=O)NO)CCOCC3)CC2)nc1 [Example 110]
8 | 2.06 | 2190 | – | – | CCCCc1ccc(C2CCN(S(=O)(=O)C3(C(=O)NO)CCOCC3)CC2)s1 [Example 19, 4-{[4-(5-butylthien-2-yl)piperidin-1-yl]sulfonyl}-N-hydroxytetrahydro-2H-pyran-4-carboxamide]
9 | – | – | 1.39 | 3660 | CCCCOc1ccc(N2CCN(S(=O)(=O)C3(C(=O)NO)CCN(c4ccc(C)nc4)CC3)CC2)cc1 [Example 131]
10 | – | – | 115 | 6000 | O=C(NO)C1(S(=O)(=O)N2CCN(c3ncccn3)CC2)CCOCC1 [Example 107]
11 | – | – | 0.69 | 1170 | O=C(NO)C1(S(=O)(=O)N2CCN(c3ccc(OCCCC(F)(F)F)cc3)CC2)CCN(c2cnccn2)CC1 [Example 112]
12 | – | – | 1.07 | 3600 | CCCCOc1ccc(N2CCN(S(=O)(=O)C3(C(=O)NO)CCN(c4cccnc4)CC3)CC2)cc1 [Example 154]
13 | – | – | 8.24 | > 10000 | CCCCOc1ccc(N2CCN(S(=O)(=O)C3(C(=O)NO)CCN4CCCC4C3)CC2)cc1F (stereo not drawn) [Example 126]
14 | 0.91 | 2900 | – | – | CCCCc1ccc(C2CCN(S(=O)(=O)C3(C(=O)NO)CCN(C4CC4)CC3)CC2)nc1 [Example 24, 4-{[4-(5-butylpyridin-2-yl)piperidin-1-yl]sulfonyl}-1-cyclopropyl-N-hydroxypiperidine-4-carboxamide Hydrochloride]
15 | – | – | 1.83 | 5350 | CCCCOc1ccc(N2CCN(S(=O)(=O)C3(C(=O)NO)CCN(c4ncc(CC)cn4)CC3)CC2)cc1 [Example 155]
16 | 0.59 | 6200 | – | – | O=C(NO)C1(S(=O)(=O)N2CCC(c3cnc(OCC(F)(F)C(F)(F)F)cn3)CC2)CCOCC1 [Example 27]
17 | – | – | 0.34 | 3090 | O=C(c1cccnc1)N1CCC(C(=O)NO)(S(=O)(=O)N2CCN(c3ccc(OCCCC(F)(F)F)cc3)CC2)CC1 [Example 122]
18 | – | – | 0.502 | 6770 | O=C(NO)C1(S(=O)(=O)N2CCN(c3ccc(OCCCC(F)(F)F)cc3)CC2)CCN(C2CC2)CC1 [Example 153]
19 | 0.418 | 7970 | – | – | O=C(NO)C1(S(=O)(=O)N2CCN(c3ccc(CCC(F)(F)C(F)(F)F)cc3)CC2)CCOCC1 [Example 17, N-hydroxy-4-({4-[4-(3,3,4,4,4-pentafluorobutyl)phenyl]piperazin-1-yl}sulfonyl)tetrahydro-2H-pyran-4-carboxamide Hydrochloride]
20 | – | – | 3.44 | 227 | O=C(NO)C1(S(=O)(=O)N2CCN(c3ncc(Br)cn3)CC2)CCOCC1 [Example 103]
21 | – | – | 134 | 7510 | O=C(NO)C1(S(=O)(=O)N2CCN(c3ncccn3)CC2)CCOCC1 [Example 106]
22 | 3.84 | 9170 | – | – | COCCOc1ccc(N2CCN(S(=O)(=O)C3(C(=O)NO)CCOCC3)CC2)cc1 [Example 14, N-hydroxy-4-({4-[4-(2-methoxyethoxy)phenyl]piperazin-1-yl}sulfonyl)tetrahydro-2H-pyran-4-carboxamide Hydrochloride]
23 | 0.104 | 954 | – | – | O=C(NO)C1(S(=O)(=O)N2CCN(c3ccc(OC(F)(F)C(F)F)cc3)CC2)CCOCC1 [Example 4, 4-({4-[4-(1,1,2,2-tetrafluoroethoxy)phenyl]piperazinyl}sulfonyl)perhydro-2H-pyran-4-carbohydroxamic Acid]
24 | 1.52 | 4290 | – | – | CCCCc1cnc(N2CCN(S(=O)(=O)C3(C(=O)NO)CCOCC3)CC2)cn1 [Example 1, 4-{[4-(5-butylpyrazin-2-yl)piperazin-1-yl]sulfonyl}-N-hydroxytetrahydro-2H-pyran-4-carboxamide Dihydrochloride]
25 | 0.501 | 2300 | – | – | CCCCCc1ccc(N2CCN(S(=O)(=O)C3(C(=O)NO)CCN(CCOC)CC3)CC2)cc1 [Example 6, N-Hydroxy-1-(2-methoxyethyl)-4-{[4-(4-pentylphenyl)piperazin-1-yl]sulfonyl}piperidine-4-carboxamide Dihydrochloride]
26 | – | – | 0.367 | 97 | CCc1ccc(N2CCN(S(=O)(=O)C3(C(=O)NO)CCOCC3)CC2)nc1 [Example 114]
27 | – | – | 1.28 | 5650 | CCCCOc1ccc(N2CCN(S(=O)(=O)C3(C(=O)NO)CCN(C(=S)N(C)C)CC3)CC2)cc1 [Example 123]
28 | – | – | 431 | > 10000 | COc1ccc(N2CCN(S(=O)(=O)C3(C(=O)NO)CCOCC3)CC2)nc1 [Example 108]

Row | SMILES | Ki [1, 3] [nM] | Ki [2, 4] [nM] | Ki ([1]; value not in parenthesis) [nM] | Ki ([2]; value not in parenthesis) [nM]
29 | COCCN1CCC(C(=O)NO)(S(=O)(=O)N2CCN(c3ccc(OCCCC(F)(F)F)cc3)CC2)CC1 [Example 9, N-hydroxy-1-(2-methoxyethyl)-4-({4-[4-(4,4,4-trifluorobutoxy)phenyl]piperazin-1-yl}sulfonyl)piperidine-4-carboxamide Dihydrochloride] | 0.223 | 5910 | – | –
30 | CCCCOc1ccc(C2CCN(S(=O)(=O)C3(C(=O)NO)CCN(CCOC)CC3)CC2)cc1 [Example 16, 4-{[4-(4-butoxyphenyl)piperidin-1-yl]sulfonyl}-N-hydroxy-1-(2-methoxyethyl)piperidine-4-carboxamide Hydrochloride] | 1.24 | 2930 | – | –
